# Data from patent US9090576B2, “2-substituted-p-quinone derivatives for treatment of oxidative stress diseases” (Edison Pharmaceuticals, Inc., priority 2008, dated 2015).
# pEC50: −log10 of the molar value. Read-outs that look alike come from different tables or passages of the source.
# Assays:
# Assay type in all cases: cell-based
# [1] = system: human dermal fibroblasts from LHON patients; test: Rescue of BSO-stressed fibroblasts from LHON patients (screen as Example A); details: Fibroblast, read-out: EC50, protection against LHON
# Protocol: (§1) A culture with FRDA fibroblasts was started from a 1 ml vial with approximately 500,000 cells stored in liquid nitrogen. Cells were propagated in 10 cm cell culture dishes by splitting every third day in a ratio of 1:3 until nine plates were available. Once confluent, fibroblasts were harvested. For 54 micro titer plates (96 well-MTP) a total of 14.3 million cells (passage eight) were re-suspended in 480 ml medium, corresponding to 100 μl medium with 3,000 cells/well. The remaining cells were distributed in 10 cm cell culture plates (500,000 cells/plate) for propagation. The plates were incubated overnight at 37° C. in an atmosphere with 95% humidity and 5% CO2 to allow attachment of the cells to the culture plate.
# (§2) MTP medium (243 μl) was added to a well of the microtiter plate. The test compounds were unfrozen, and 7.5 μl of a 5 mM stock solution was dissolved in the well containing 243 μl medium, resulting in a 150 μM master solution. Serial dilutions from the master solution were made. The period between the single dilution steps was kept as short as possible (generally less than 1 second).
# (§3) Plates were kept overnight in the cell culture incubator. The next day, 10 μl of a 10 mM BSO solution were added to the wells, resulting in a 1 mM final BSO concentration. Forty-eight hours later, three plates were examined under a phase-contrast microscope to verify that the cells in the 0% control (wells E1-H1) were clearly dead. The medium from all plates was discarded, and the remaining liquid was removed by gently tapping the plate inversed onto a paper towel.
# (§4) 100 μl of PBS containing 1.2 μM Calcein AM were then added to each well. The plates were incubated for 50-70 minutes at room temperature. After that time the PBS was discarded, the plate gently tapped on a paper towel and fluorescence (excitation/emission wavelengths of 485 nm and 525 nm, respectively) was read on a Gemini fluorescence reader. Data was imported into Microsoft Excel (EXCEL is a registered trademark of Microsoft Corporation for a spreadsheet program) and used to calculate the EC50 concentration for each compound.
# (§5) Compounds of the invention were screened as described in Example A, but substituting FRDA cells with Leber's Hereditary Optic Neuropathy (LHON) cells obtained from the Coriell Cell Repositories (Camden, N.J.; repository number GM03858). The compounds were tested for their ability to rescue human dermal fibroblasts from LHON patients from oxidative stress.
# [2] = system: Human dermal fibroblasts from Friedreich's Ataxia patients; test: Rescue of BSO-stressed FRDA fibroblasts (Calcein AM viability); details: BSO-stressed FRDA fibroblasts (GM04078)
# Protocol: An initial screen was performed to identify compounds effective for the amelioration of redox disorders. Test samples, 4 reference compounds (Idebenone, decylubiquinone, Trolox and α-tocopherol acetate), and solvent controls were tested for their ability to rescue FRDA fibroblasts stressed by addition of L-buthionine-(S,R)-sulfoximine (BSO), as described in Jauslin et al., Hum. Mol. Genet. 11(24):3055 (2002), Jauslin et al., FASEB J. 17:1972-4 (2003), and International Patent Application WO 2004/003565. […] This specific BSO-mediated cell death can be prevented by administration of antioxidants or molecules involved in the antioxidant pathway, such as α-tocopherol, selenium, or small molecule glutathione peroxidase mimetics. However, antioxidants differ in their potency, i.e. the concentration at which they are able to rescue BSO-stressed FRDA fibroblasts.
# MEM (a medium enriched in amino acids and vitamins, catalog no. 1-31F24-I) and Medium 199 (M199, catalog no. 1-21F22-I) with Earle's Balanced Salts, without phenol red, were purchased from Bioconcept. Fetal Calf Serum was obtained from PAA Laboratories. Basic fibroblast growth factor and epidermal growth factor were purchased from PeproTech. Penicillin-streptomycin-glutamine mix, L-buthionine (S,R)-sulfoximine, (+)-α-tocopherol acetate, decylubiquinone, and insulin from bovine pancreas were purchased from Sigma. Trolox (6-hydroxy-2,5,7,8-tetramethylchromane-2-carboxylic acid) was obtained from Fluka. Idebenone was obtained from Chemo Iberica. Calcein AM was purchased from Molecular Probes. Cell culture medium was made by combining 125 ml M199 EBS, 50 ml Fetal Calf Serum, 100 U/ml penicillin, 100 μg/ml streptomycin, 2 mM glutamine, 10 μg/ml insulin, 10 ng/ml EGF, and 10 ng/ml bFGF; MEM EBS was added to make the volume up to 500 ml. A 10 mM BSO solution was prepared by dissolving 444 mg BSO in 200 ml of medium with subsequent filter-sterilization. During the course of the experiments, this solution was stored at +4° C. The cells were obtained from the Coriell Cell Repositories (Camden, N.J.; repository number GM04078) and grown in 10 cm tissue culture plates. Every third day, they were split at a 1:3 ratio.
# The test samples were supplied in 1.5 ml glass vials. The compounds were diluted with DMSO, ethanol or PBS to result in a 5 mM stock solution. Once dissolved, they were stored at −20° C. Reference antioxidants (Idebenone, decylubiquinone, α-tocopherol acetate and trolox) were dissolved in DMSO.
# Test samples were screened according to the following protocol:
# as §1, §2
# as §3, with “The medium from all plates was discarded, and the remaining liquid was removed by gently tapping the plate inversed onto a paper towel.” left out
# [3] = system: human dermal fibroblasts from Huntington's patients; test: Rescue of BSO-stressed fibroblasts from Huntington's patients (screen as Example A); details: Fibroblast, read-out: EC50, protection against Huntington's
# Protocol: as §1, §2, §3, §4
# as §5, with “tested using the screen” for “screened”, “Huntington's” for “Leber's Hereditary Optic Neuropathy (LHON)”, “GM 04281).” for “GM03858).”, “Huntington's” for “LHON”
# [4] = BSO-stressed LHON fibroblasts (GM03858), less than about 150 nM
# [5] = less than about 150 nM, read-out: EC50, protection against FRDA
# [6] = BSO-stressed Huntington's fibroblasts (GM 04281), less than about 150 nM
# [7] = 1 mM BSO, 48 h, first of three experiments, read-out: EC50 Value 1
# [8] = 1 mM BSO, 48 h, second of three experiments, read-out: EC50 Value 2
# [9] = 1 mM BSO, 48 h, third of three experiments, read-out: EC50 Value 3
# [10] = average of three experiments, read-out: EC50 Average
smiles,measurement,setting,value
"CCNC(=O)NCCC1=C(C)C(=O)C(C)=C(c2ccc(Cl)cc2)C1=O [1-(2-(5-(4-chlorophenyl)-2,4-dimethyl-3,6-dioxocyclohexa-1,4-dienyl)ethyl)-3-ethylurea]",pEC50,[1]; [4],> 6.82
same,pEC50,[2]; [5],> 6.82
"CC1=C(C)C(=O)C(CCCC(=O)N2CCCC2)=C(C)C1=O [2,3,5-trimethyl-6-(4-oxo-4-(pyrrolidin-1-yl)butyl)cyclohexa-2,5-diene-1,4-dione]",pEC50,[2]; [5],> 6.82
"CC1=C(C)C(=O)C(CCCC(=O)N2CCC(F)(F)CC2)=C(C)C1=O [2-(4-(4,4-difluoropiperidin-1-yl)-4-oxobutyl)-3,5,6-trimethylcyclohexa-2,5-diene-1,4-dione]",pEC50,[1]; [4],> 6.82
"CC1=C(C)C(=O)C(CCCC(=O)N2CCN(C(=O)C3CCCCC3)CC2)=C(C)C1=O [2-(4-(4-(cyclohexanecarbonyl)piperazin-1-yl)-4-oxobutyl)-3,5,6-trimethylcyclohexa-2,5-diene-1,4-dione]",pEC50,[1]; [4],> 6.82
"CC1=C(C)C(=O)C(CCCC(=O)N2CCN(C(=O)c3ccccc3)CC2)=C(C)C1=O [2-(4-(4-benzoylpiperazin-1-yl)-4-oxobutyl)-3,5,6-trimethylcyclohexa-2,5-diene-1,4-dione]",pEC50,[1]; [4],> 6.82
"CC1=C(C)C(=O)C(CCC(C)C(=O)N2CCC(F)CC2)=C(C)C1=O (centres unmarked) [2-(4-(4-fluoropiperidin-1-yl)-3-methyl-4-oxobutyl)-3,5,6-trimethylcyclohexa-2,5-diene-1,4-dione]",pEC50,[1]; [4],> 6.82
same,pEC50,[3]; [6],> 6.82
"CC1=C(C)C(=O)C(CCCC(=O)N2CCC(F)CC2)=C(C)C1=O [2-(4-(4-fluoropiperidin-1-yl)-4-oxobutyl)-3,5,6-trimethylcyclohexa-2,5-diene-1,4-dione]",pEC50,[1]; [4],> 6.82
"CC1=C(C)C(=O)C(CCC(C)C(=O)N2CCC(O)CC2)=C(C)C1=O (centres unmarked) [2-(4-(4-hydroxypiperidin-1-yl)-3-methyl-4-oxobutyl)-3,5,6-trimethylcyclohexa-2,5-diene-1,4-dione]",pEC50,[2]; [5],> 6.82
"CC1=C(C)C(=O)C(CCNC(=O)C(O)c2ccc(Cl)cc2)=C(C)C1=O (centres unmarked) [2-(4-chlorophenyl)-2-hydroxy-N-(2-(2,4,5-trimethyl-3,6-dioxocyclohexa-1,4-dienyl)ethyl)acetamide]",pEC50,[1]; [4],> 6.82
same,pEC50,[3]; [6],> 6.82
"CC1=C(C)C(=O)C(CCNC(=O)C(O)c2ccccc2)=C(C)C1=O (centres unmarked) [2-hydroxy-2-phenyl-N-(2-(2,4,5-trimethyl-3,6-dioxocyclohexa-1,4-dienyl)ethyl)acetamide]",pEC50,[1]; [4],> 6.82
same,pEC50,[2]; [5],> 6.82
"CC1=C(C)C(=O)C(CCC(C)C(N)=O)=C(C)C1=O (centres unmarked) [2-methyl-4-(2,4,5-trimethyl-3,6-dioxocyclohexa-1,4-dienyl)butanamide]",pEC50,[1]; [4],> 6.82
"CCCNC(=O)C(C)CCC1=C(C)C(=O)C(C)=C(C)C1=O (centres unmarked) [2-methyl-N-propyl-4-(2,4,5-trimethyl-3,6-dioxocyclohexa-1,4-dienyl)butanamide]",pEC50,[3]; [6],> 6.82
"CCNC(=O)N(C)CCC1=C(C)C(=O)C(C)=C(C)C1=O [3-Ethyl-1-methyl-1-(2-(2,4,5-trimethyl-3,6-dioxocyclohexa-1,4-dienyl)ethyl)urea]",pEC50,[2]; [5],> 6.82
"CC1=C(C)C(=O)C(CCNC(=O)N2CCC(=O)CC2)=C(C)C1=O [4-Oxo-N-(2-(2,4,5-trimethyl-3,6-dioxocyclohexa-1,4-dienyl)ethyl)piperidine-1-carboxamide]",pEC50,[1],> 6.82
same,pEC50,[3],> 6.82
"CC(=O)N1CCN(C(=O)NCCC2=C(C)C(=O)C(C)=C(C)C2=O)CC1 [4-acetyl-N-(2-(2,4,5-trimethyl-3,6-dioxocyclohexa-1,4-dienyl)ethyl)piperazine-1-carboxamide]",pEC50,[1]; [4],> 6.82
same,pEC50,[3]; [6],> 6.82
"CC1=C(C)C(=O)C(CCNC(=O)N2CCC(O)CC2)=C(C)C1=O [4-hydroxy-N-(2-(2,4,5-trimethyl-3,6-dioxocyclohexa-1,4-dienyl)ethyl)piperidine-1-carboxamide]",pEC50,[1]; [4],> 6.82
"CCCCCCCCCCC1=C(C)C(=O)C(OC)=C(OC)C1=O [Decylubiquinone, decylubiquinone, reference compound]",pEC50,[2]; [7],7.30
same,pEC50,[2]; [8],7.46
same,pEC50,[2]; [9],7.52
same,pEC50,[2]; [10],7.42
"COC1=C(OC)C(=O)C(CCCCCCCCCCO)=C(C)C1=O [Idebenone, reference compound]",pEC50,[2]; [7],5.82
same,pEC50,[2]; [8],6.00
same,pEC50,[2]; [9],6.00
same,pEC50,[2]; [10],5.92
"CC1=C(C)C(=O)C(CCNC(=O)c2cccnc2)=C(C)C1=O [N-(2-(2,4,5-trimethyl-3,6-dioxocyclohexa-1,4-dienyl)ethyl)nicotinamide]",pEC50,[1]; [4],> 6.82
"CC1=C(C)C(=O)C(CCNC(=O)N2CCCCC2)=C(C)C1=O [N-(2-(2,4,5-trimethyl-3,6-dioxocyclohexa-1,4-dienyl)ethyl)piperidine-1-carboxamide]",pEC50,[2]; [5],> 6.82
"CCCCCC(=O)NCCC1=C(CCC(C)(C)O)C(=O)C(C)=C(C)C1=O [N-(2-(2-(3-Hydroxy-3-methylbutyl)-4,5-dimethyl-3,6-dioxocyclohexa-1,4-dienyl)ethyl)hexanamide]",pEC50,[1]; [4],> 6.82
same,pEC50,[3]; [6],> 6.82
"CC1=C(CCNC(=O)C2CCC(F)(F)CC2)C(=O)C(c2ccc(Cl)cc2)=C(C)C1=O [N-(2-(5-(4-chlorophenyl)-2,4-dimethyl-3,6-dioxocyclohexa-1,4-dienyl)ethyl)-4,4-difluorocyclohexanecarboxamide]",pEC50,[1]; [4],> 6.82
same,pEC50,[2]; [5],> 6.82
"Cc1c(C)c2c(c(C)c1O)CCC(C)(C(=O)O)O2 (centres unmarked) [Trolox, 6-hydroxy-2,5,7,8-tetramethylchromane-2-carboxylic acid, reference compound]",pEC50,[2]; [7],5.05
same,pEC50,[2]; [8],5.05
same,pEC50,[2]; [9],5.10
same,pEC50,[2]; [10],5.06
"CC(=O)Oc1c(C)c(C)c2c(c1C)CCC(C)(CCC[C@H](C)CCC[C@H](C)CCCC(C)C)O2 (stereo partly drawn) [alpha-Tocopherol acetate, (+)-α-tocopherol acetate, reference compound]",pEC50,[2]; [7],6.40
same,pEC50,[2]; [8],6.82
same,pEC50,[2]; [9],6.46
same,pEC50,[2]; [10],6.52
